Results as given in the supplement of paper PMC10307832.

How the values were obtained:
Assay in all cases: relative viability (nuclei count vs DMSO), 5 days (fraction); higher = more cells survive
NCI-H1915 = tested on: NCI-H1915
In short: (§1)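 Lung cancer cell lines were seeded in 1536-well plates and dosed by pin tool the next day, with either a single drug or a fixed anchor-drug dose combined with five library-drug doses (not always all listed) spaced in √10 steps. Five days later, one step fixed the cells and stained their nuclei (final 0.05% Triton X-100, 1% formaldehyde, 1 ug/ml Hoechst), and nuclei were counted on 4× images. Relative viability is the nuclei count in treated wells divided by the count in vehicle wells, and each value is the median of duplicate plates.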

NCI-H2023 = tested on: NCI-H2023
In short: as §1

NCI-H2347 = tested on: NCI-H2347
In short: as §1

NCI-H2009 = tested on: NCI-H2009
In short: as §1

LXF-289 = tested on: LXF-289
In short: as §1

EMC-BAC-2 = tested on: EMC-BAC-2
In short: as §1

LCLC-97TM1 = tested on: LCLC-97TM1
In short: as §1

EPLC-272H = tested on: EPLC-272H
In short: as §1

HOP-62 = tested on: HOP-62
In short: as §1

PC-14 = tested on: PC-14
In short: as §1

SW 1573 = tested on: SW 1573
In short: as §1

NCI-H1563 = tested on: NCI-H1563
In short: as §1

NCI-H1993 = tested on: NCI-H1993
In short: as §1

NCI-H2126 = tested on: NCI-H2126
In short: as §1

NCI-H2342 = tested on: NCI-H2342
In short: as §1

SK-LU-1 = tested on: SK-LU-1
In short: as §1

NCI-H1650 = tested on: NCI-H1650
In short: as §1

NCI-H727 = tested on: NCI-H727
In short: as §1

NCI-H322M = tested on: NCI-H322M
In short: as §1

NCI-H661 = tested on: NCI-H661
In short: as §1

NCI-H647 = tested on: NCI-H647
In short: as §1

H3255 = tested on: H3255
In short: as §1

NCI-H2085 = tested on: NCI-H2085
In short: as §1

Oc1nc(-c2ccc(C(F)(F)F)cc2)nc2c1CSCC2 [XAV939] + CCNC(=O)c1noc(-c2cc(C(C)C)c(O)cc2O)c1-c1ccc(CN2CCOCC2)cc1 [Luminespib] (partner 0.01 µM)
relative viability (NCI-H1915; first compound 0.08 µM): 1.11 | relative viability (NCI-H1915; first compound 0.253 µM): 0.449 | relative viability (NCI-H1915; first compound 0.8 µM): 0.849 | relative viability (NCI-H1915; first compound 2.53 µM): 0.741 | relative viability (NCI-H2023; first compound 0.08 µM): 0.888 | relative viability (NCI-H2023; first compound 0.253 µM): 0.604 | relative viability (NCI-H2023; first compound 0.8 µM): 0.589 | relative viability (NCI-H2023; first compound 2.53 µM): 0.454 | relative viability (NCI-H2347; first compound 0.08 µM): 0.419 | relative viability (NCI-H2347; first compound 2.53 µM): 0.248 | relative viability (NCI-H2009; first compound 0.08 µM): 1.09 | relative viability (NCI-H2009; first compound 0.253 µM): 0.883 | relative viability (NCI-H2009; first compound 0.8 µM): 1 | relative viability (NCI-H2009; first compound 2.53 µM): 0.94 | relative viability (LXF-289; first compound 0.08 µM): 0.727 | relative viability (LXF-289; first compound 0.253 µM): 0.681 | relative viability (LXF-289; first compound 0.8 µM): 0.778 | relative viability (LXF-289; first compound 2.53 µM): 0.729 | relative viability (EMC-BAC-2; first compound 0.08 µM): 1.37 | relative viability (EMC-BAC-2; first compound 0.253 µM): 1.09 | relative viability (EMC-BAC-2; first compound 0.8 µM): 0.971 | relative viability (EMC-BAC-2; first compound 2.53 µM): 0.771 | relative viability (LCLC-97TM1; first compound 0.08 µM): 0.977 | relative viability (LCLC-97TM1; first compound 0.253 µM): 0.763 | relative viability (LCLC-97TM1; first compound 0.8 µM): 0.835 | relative viability (LCLC-97TM1; first compound 2.53 µM): 0.765 | relative viability (EPLC-272H; first compound 0.08 µM): 0.954 | relative viability (EPLC-272H; first compound 0.253 µM): 0.361 | relative viability (EPLC-272H; first compound 0.8 µM): 0.317 | relative viability (EPLC-272H; first compound 2.53 µM): 0.184 | relative viability (HOP-62; first compound 0.08 µM): 1.01 | relative viability (HOP-62; first compound 0.253 µM): 0.869 | relative viability (HOP-62; first compound 0.8 µM): 1 | relative viability (HOP-62; first compound 2.53 µM): 0.74 | relative viability (PC-14; first compound 0.08 µM): 0.163 | relative viability (PC-14; first compound 0.253 µM): 0.174 | relative viability (PC-14; first compound 0.8 µM): 0.164 | relative viability (PC-14; first compound 2.53 µM): 0.179 | relative viability (SW 1573; first compound 0.08 µM): 0.691 | relative viability (SW 1573; first compound 0.253 µM): 0.249 | relative viability (SW 1573; first compound 0.8 µM): 0.136 | relative viability (SW 1573; first compound 2.53 µM): 0.226 | relative viability (NCI-H1563; first compound 0.08 µM): 0.617 | relative viability (NCI-H1563; first compound 0.253 µM): 0.481 | relative viability (NCI-H1563; first compound 0.8 µM): 0.505 | relative viability (NCI-H1563; first compound 2.53 µM): 0.489 | relative viability (NCI-H1993; first compound 0.08 µM): 0.779 | relative viability (NCI-H1993; first compound 0.253 µM): 0.672 | relative viability (NCI-H1993; first compound 0.8 µM): 0.748 | relative viability (NCI-H1993; first compound 2.53 µM): 0.714 | relative viability (NCI-H2126; first compound 0.08 µM): 0.985 | relative viability (NCI-H2126; first compound 0.253 µM): 0.843 | relative viability (NCI-H2126; first compound 0.8 µM): 0.869 | relative viability (NCI-H2126; first compound 2.53 µM): 0.733 | relative viability (NCI-H2342; first compound 0.08 µM): 0.645 | relative viability (NCI-H2342; first compound 0.253 µM): 0.601 | relative viability (NCI-H2342; first compound 0.8 µM): 0.546 | relative viability (NCI-H2342; first compound 2.53 µM): 0.402 | relative viability (SK-LU-1; first compound 0.08 µM): 0.201 | relative viability (SK-LU-1; first compound 0.253 µM): 0.193 | relative viability (SK-LU-1; first compound 0.8 µM): 0.207 | relative viability (SK-LU-1; first compound 2.53 µM): 0.246 | relative viability (NCI-H1650; first compound 0.08 µM): 0.196 | relative viability (NCI-H1650; first compound 0.253 µM): 0.225 | relative viability (NCI-H1650; first compound 0.8 µM): 0.177 | relative viability (NCI-H1650; first compound 2.53 µM): 0.197 | relative viability (NCI-H727; first compound 0.08 µM): 0.31 | relative viability (NCI-H727; first compound 0.253 µM): 0.345 | relative viability (NCI-H727; first compound 0.8 µM): 0.472 | relative viability (NCI-H727; first compound 2.53 µM): 0.342 | relative viability (NCI-H322M; first compound 0.08 µM): 1.06 | relative viability (NCI-H322M; first compound 0.253 µM): 0.808 | relative viability (NCI-H322M; first compound 0.8 µM): 0.86 | relative viability (NCI-H322M; first compound 2.53 µM): 0.552 | relative viability (NCI-H661; first compound 0.08 µM): 0.894 | relative viability (NCI-H661; first compound 0.253 µM): 0.892 | relative viability (NCI-H661; first compound 0.8 µM): 0.913 | relative viability (NCI-H661; first compound 2.53 µM): 0.933 | relative viability (NCI-H647; first compound 0.08 µM): 0.252 | relative viability (NCI-H647; first compound 0.253 µM): 0.173 | relative viability (NCI-H647; first compound 0.8 µM): 0.156 | relative viability (NCI-H647; first compound 2.53 µM): 0.143 | relative viability (H3255; first compound 0.08 µM): 1.09 | relative viability (H3255; first compound 0.253 µM): 0.879 | relative viability (H3255; first compound 0.8 µM): 0.804 | relative viability (H3255; first compound 2.53 µM): 0.907 | relative viability (NCI-H2085; first compound 0.08 µM): 0.446 | relative viability (NCI-H2085; first compound 0.253 µM): 0.422 | relative viability (NCI-H2085; first compound 0.8 µM): 0.431 | relative viability (NCI-H2085; first compound 2.53 µM): 0.406
